# Assay: recombinant UMI read abundance after kanamycin selection (control-corrected) (log10(CPM+1)); higher = more efficient recombination; extreme values may be limits of the assay; sequences stand for … in AGTGCAGAGAAAATCGGCCAGTTTTCTCTGCCTGCAGTCCGCATGCCGTGGGACCCCTTGGGTTCTAACCTGTTGCCTAGATTTATGCAGCGGACTGCCTTTCTCCCAAAGTGATAAACCGG…AGGTTGGTTTCACT; site = the 11-nt donor
# How it was run: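 Counts of recombinant UMIs were reported as log10(CPM+1). Before that, they were converted to CPM, averaged over replicates and scaled using control-derived factors. They came from PCR across the donor–target junction after Escherichia coli carrying the pair library and target plasmid was plated on IPTG (0.07 mM) plus kanamycin, or unselected, in two replicates each.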
# 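Also: IS621 bridge recombinase in Escherichia coli cells against a fixed T5 target plasmid.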
row,Sequence,recombinant UMI read abundance (log10)
1,GGTACGTCATGGACCGGTTTTCCCGGTAATCCGTATTTGTT (site GGTACGTCTAG),0
2,TGACATTCATGGACCGGTTTTCCCGGTAATCCGTATTTGCT (site TGACATTCTAG),1.97
3,AGTACGTCATGGACCGGTTTTCCCGGTAATCCGTATTTGTT (site TGTACGTCTAA),0.212
4,AGGAAGACATGGACCGGTTTTCCCGGTAATCCGTATTTGCA (site AGGCAGACTAG),0
5,CACTTGGCATGGACCGGTTTTCCCGGTAATCCGTATTTGGA (site CACTTGGCTTG),0.926
6,CAAGCAGCATGGACCGGTTTTCCCGGTAATCCGTATTTGGT (site CAAGCAGCTAG),1.5
7,TCAGATACATGGACCGGTTTTCCCGGTAATCCGTATTTGGC (site TCAGATACTGC),0
8,GCTGGTACATGGACCGGTTTTCCCGGTAATCCGTATTTGCG (site GCTGGTACTCG),1.68
9,GTCCAAGCATGGACCGGTTTTCCCGGTAATCCGTATTTGAG (site TTCCAAGCTCT),0.088
10,GTGGTCGCATGGACCGGTTTTCCCGGTAATCCGTATTTGCG (site GTTGTCGCTCG),0.00973
11,ATAAGGCCATGGACCGGTTTTCCCGGTAATCCGTATTTGAC (site ATACGGCCTGT),0
12,AGGACTACATGGACCGGTTTTCCCGGTAATCCGTATTTGTC (site AGGACTACTGT),1.37
13,TATTACACATGGACCGGTTTTCCCGGTAATCCGTATTTGCC (site TATTACACTGG),2.37
14,ATTGAGTCATGGACCGGTTTTCCCGGTAATCCGTATTTGGT (site ATTGAGTCTAC),2.29
15,CTACCATCATGGACCGGTTTTCCCGGTAATCCGTATTTGAC (site CTAGTATCTGT),0
16,GGCCACCCATGGACCGGTTTTCCCGGTAATCCGTATTTGTT (site GACCACCCTAA),0.018
17,ATAAGGCCATGGACCGGTTTTCCCGGTAATCCGTATTTGAC (site ATAAGGGCTGT),0
18,CTCCCTACATGGACCGGTTTTCCCGGTAATCCGTATTTGAA (site CTCCCTACTCT),0.0285
19,CAAGCAGCATGGACCGGTTTTCCCGGTAATCCGTATTTGGT (site CAAGCAGCTAC),1.73

row,Sequence,recombinant UMI read abundance (log10)
1,TTGTAAGCATGGACCGGTTTTCCCGGTAATCCGTATTTGCA (site TTGTAAGCTTG),1.17
2,GCTTGCCCATGGACCGGTTTTCCCGGTAATCCGTATTTGAC (site GCTTGCCCTAT),0
3,CTCTACACATGGACCGGTTTTCCCGGTAATCCGTATTTGTT (site CTCTACACTAC),0.0026
4,AGGAAGACATGGACCGGTTTTCCCGGTAATCCGTATTTGCA (site ACGAAAACTTG),0
5,GCCAAACCATGGACCGGTTTTCCCGGTAATCCGTATTTGGT (site GGCAAACCTAC),0.0048
6,CTCTACACATGGACCGGTTTTCCCGGTAATCCGTATTTGCT (site CTCTACTCTAG),0.78
7,GTTGAGACATGGACCGGTTTTCCCGGTAATCCGTATTTGGT (site ATTGAGACTAC),0.953
8,TAGGCTTCATGGACCGGTTTTCCCGGTAATCCGTATTTGGT (site TAGGCTTCTAC),1.54
9,GGGGTACCATGGACCGGTTTTCCCGGTAATCCGTATTTGCA (site GGGGTACCTTG),0
10,CAGAATACATGGACCGGTTTTCCCGGTAATCCGTATTTGCA (site TAGAATACTTG),0.38
11,CACTTGGCATGGACCGGTTTTCCCGGTAATCCGTATTTGGA (site CAGTTGGCTTC),0.28
12,GCAACTGCATGGACCGGTTTTCCCGGTAATCCGTATTTGCC (site GCAACTGCTGG),0
13,CCGATTCCATGGACCGGTTTTCCCGGTAATCCGTATTTGTT (site CCGATTCCTAA),0
14,AGGAAGGCATGGACCGGTTTTCCCGGTAATCCGTATTTGCA (site AGGAAGTCTTG),1.82
15,AATCGTCCATGGACCGGTTTTCCCGGTAATCCGTATTTGAT (site AACCGTCCTAT),0.0167
16,ATTGAGTCATGGACCGGTTTTCCCGGTAATCCGTATTTGGT (site ATTGAGGCTAC),0
17,GCAGTATCATGGACCGGTTTTCCCGGTAATCCGTATTTGCA (site TCAGTATCTTG),1.87
18,CGCAAGACATGGACCGGTTTTCCCGGTAATCCGTATTTGGT (site CGCAAGACTAC),1.19
19,TCCAATCCATGGACCGGTTTTCCCGGTAATCCGTATTTGCC (site TCCAATCCTGG),0

row,Sequence,recombinant UMI read abundance (log10)
1,AGGAAGACATGGACCGGTTTTCCCGGTAATCCGTATTTGTA (site AGGAAGACTTA),2.74
2,CGTGTGGCATGGACCGGTTTTCCCGGTAATCCGTATTTGCT (site CGTATGGCTAG),1.01
3,CATTTGGCATGGACCGGTTTTCCCGGTAATCCGTATTTGCT (site CATTTGGCTAG),0
4,TTGGCTGCATGGACCGGTTTTCCCGGTAATCCGTATTTGTG (site TTGGCTGCTCA),0.00853
5,GATTGTCCATGGACCGGTTTTCCCGGTAATCCGTATTTGCT (site GATTCTCCTAG),0
6,CCCCACACATGGACCGGTTTTCCCGGTAATCCGTATTTGTG (site CCCCACACTAA),0.0034
7,CACTTGGCATGGACCGGTTTTCCCGGTAATCCGTATTTGGC (site CACTTGGCTAC),0.012
8,TGTTCCCCATGGACCGGTTTTCCCGGTAATCCGTATTTGTC (site TGTTCCCCTGA),1.16
9,ATAGCTGCATGGACCGGTTTTCCCGGTAATCCGTATTTGTG (site CTAGCTGCTCA),0.647
10,AGCTTAGCATGGACCGGTTTTCCCGGTAATCCGTATTTGGG (site AGCTAAGCTCC),0.0186
11,GCTAGTGCATGGACCGGTTTTCCCGGTAATCCGTATTTGCC (site GCTATTGCTGG),0
12,CTGGAAGCATGGACCGGTTTTCCCGGTAATCCGTATTTGCA (site CTGGAATCTTG),3.42
13,CAATTCCCATGGACCGGTTTTCCCGGTAATCCGTATTTGTT (site CAATTCCCTAC),0.942
14,CGTATAACATGGACCGGTTTTCCCGGTAATCCGTATTTGAT (site CGTATAACTAT),0.94
15,CGGACATCATGGACCGGTTTTCCCGGTAATCCGTATTTGCT (site CGCACATCTAG),0
16,CCCGGTCCATGGACCGGTTTTCCCGGTAATCCGTATTTGCA (site CACGGTCCTTG),0
17,TTACTACCATGGACCGGTTTTCCCGGTAATCCGTATTTGCG (site TTACTACCTCG),0.0128
18,GTAGTGGCATGGACCGGTTTTCCCGGTAATCCGTATTTGCG (site GTAGTCGCTCG),1.25
19,AGCACGGCATGGACCGGTTTTCCCGGTAATCCGTATTTGCT (site AGCACGGCTAG),1.9

# Reference: the supplement of paper PMC11208160
